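Briefly, cells in 96-well plates were exposed to five compound concentrations for 48 h, and endpoints were estimated by linear interpolation. The concentration for 50% growth inhibition is given as GI50.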 Activity calls are given as the source filed them. Cut-off read from the data, not from the text of the source: active = GI50 up to about 1.1 µM and inactive = higher.
Tests used:
Assay in all cases: DTP human tumour cell line panel, 48 h
786-0 = test system: 786-0
A549 = test system: A549
ACHN = test system: ACHN
CCRF-CEM = test system: CCRF-CEM
COLO 205 = test system: COLO 205
DMS-114 = test system: DMS-114
DMS-273 = test system: DMS-273
EKVX = test system: EKVX
HCT-116 = test system: HCT-116
HCT-15 = test system: HCT-15
HL-60 = test system: HL-60
HOP-62 = test system: HOP-62
HT-29 = test system: HT-29
IGROV-1 = test system: IGROV-1
K562 = test system: K562
KM-20L2 = test system: KM-20L2
KM12 = test system: KM12
LOX IMVI = test system: LOX IMVI
LXFL 529 = test system: LXFL 529
M14 = test system: M14
M19-MEL = test system: M19-MEL
MOLT-4 = test system: MOLT-4
Malme-3M = test system: Malme-3M
NCI-H226 = test system: NCI-H226
NCI-H23 = test system: NCI-H23
NCI-H460 = test system: NCI-H460
NCI-H522 = test system: NCI-H522
OVCAR-3 = test system: OVCAR-3
OVCAR-4 = test system: OVCAR-4
OVCAR-5 = test system: OVCAR-5
OVCAR-8 = test system: OVCAR-8
RPMI-8226 = test system: RPMI-8226
RXF 393 = test system: RXF 393
SF-268 = test system: SF-268
SF-295 = test system: SF-295
SF-539 = test system: SF-539
SK-MEL-28 = test system: SK-MEL-28
SK-MEL-2 = test system: SK-MEL-2
SK-MEL-5 = test system: SK-MEL-5
SN12C = test system: SN12C
SNB-19 = test system: SNB-19
SNB-75 = test system: SNB-75
SNB-78 = test system: SNB-78
SR = test system: SR
SW-620 = test system: SW-620
TK-10 = test system: TK-10
U-251 = test system: U-251
UACC-62 = test system: UACC-62
UO-31 = test system: UO-31
XF498 = test system: XF498
DLD-1 = test system: DLD-1
HCC 2998 = test system: HCC 2998
HOP-92 = test system: HOP-92
UACC-257 = test system: UACC-257
A498 = test system: A498
CAKI-1 = test system: CAKI-1
HOP-18 = test system: HOP-18
SK-OV-3 = test system: SK-OV-3

## C=CCNC(=S)N1c2ccccc2NC(=O)CC1C (configuration not stated)
786-0
  GI50: > 100 µM (inactive)
A549
  GI50: > 100 µM (inactive)
ACHN
  GI50: > 100 µM (inactive)
CCRF-CEM
  GI50: > 100 µM (inactive)
COLO 205
  GI50: > 100 µM (inactive)
DMS-114
  GI50: > 100 µM (inactive)
DMS-273
  GI50: > 100 µM (inactive)
EKVX
  GI50: > 100 µM (inactive)
HCT-116
  GI50: > 100 µM (inactive)
HCT-15
  GI50: > 100 µM
HL-60
  GI50: > 100 µM (inactive)
HOP-62
  GI50: > 100 µM (inactive)
HT-29
  GI50: > 100 µM (inactive)
IGROV-1
  GI50: > 100 µM (inactive)
K562
  GI50: > 100 µM (inactive)
KM-20L2
  GI50: > 100 µM (inactive)
KM12
  GI50: > 100 µM (inactive)
LOX IMVI
  GI50: > 100 µM (inactive)
LXFL 529
  GI50: > 100 µM (inactive)
M14
  GI50: > 100 µM (inactive)
M19-MEL
  GI50: > 100 µM (inactive)
MOLT-4
  GI50: > 100 µM (inactive)
Malme-3M
  GI50: > 100 µM (inactive)
NCI-H226
  GI50: > 100 µM (inactive)
NCI-H23
  GI50: > 100 µM (inactive)
NCI-H460
  GI50: > 100 µM (inactive)
NCI-H522
  GI50: > 100 µM (inactive)
OVCAR-3
  GI50: > 100 µM (inactive)
OVCAR-4
  GI50: > 100 µM (inactive)
OVCAR-5
  GI50: > 100 µM (inactive)
OVCAR-8
  GI50: > 100 µM (inactive)
RPMI-8226
  GI50: > 100 µM (inactive)
RXF 393
  GI50: > 100 µM (inactive)
SF-268
  GI50: > 100 µM (inactive)
SF-295
  GI50: > 100 µM (inactive)
SF-539
  GI50: > 100 µM (inactive)
SK-MEL-28
  GI50: > 100 µM (inactive)
SK-MEL-2
  GI50: > 100 µM (inactive)
SK-MEL-5
  GI50: > 100 µM (inactive)
SN12C
  GI50: > 100 µM (inactive)
SNB-19
  GI50: > 100 µM (inactive)
SNB-75
  GI50: 54.6 µM (inactive)
SNB-78
  GI50: > 100 µM (inactive)
SR
  GI50: > 100 µM (inactive)
SW-620
  GI50: > 100 µM (inactive)
TK-10
  GI50: > 100 µM (inactive)
U-251
  GI50: > 100 µM (inactive)
UACC-62
  GI50: > 100 µM (inactive)
UO-31
  GI50: > 100 µM (inactive)
XF498
  GI50: > 100 µM (inactive)

## COC(=O)C12CC(c3ccccc31)C1C(=O)OC(=O)C12 (configuration not stated)
786-0
  GI50: > 100 µM (inactive)
A549
  GI50: > 100 µM (inactive)
ACHN
  GI50: > 100 µM (inactive)
CCRF-CEM
  GI50: > 100 µM (inactive)
COLO 205
  GI50: > 100 µM (inactive)
DLD-1
  GI50: > 100 µM (inactive)
DMS-114
  GI50: > 100 µM (inactive)
DMS-273
  GI50: > 100 µM (inactive)
EKVX
  GI50: > 100 µM (inactive)
HCC 2998
  GI50: > 100 µM (inactive)
HCT-116
  GI50: > 100 µM (inactive)
HCT-15
  GI50: > 100 µM
HL-60
  GI50: > 100 µM (inactive)
HOP-62
  GI50: > 100 µM (inactive)
HOP-92
  GI50: > 100 µM (inactive)
HT-29
  GI50: > 100 µM (inactive)
IGROV-1
  GI50: > 100 µM (inactive)
K562
  GI50: > 100 µM (inactive)
KM-20L2
  GI50: > 100 µM (inactive)
KM12
  GI50: > 100 µM (inactive)
LOX IMVI
  GI50: > 100 µM (inactive)
LXFL 529
  GI50: > 100 µM (inactive)
M14
  GI50: > 100 µM (inactive)
M19-MEL
  GI50: > 100 µM (inactive)
MOLT-4
  GI50: > 100 µM (inactive)
Malme-3M
  GI50: > 100 µM (inactive)
NCI-H23
  GI50: > 100 µM (inactive)
NCI-H460
  GI50: > 100 µM (inactive)
NCI-H522
  GI50: > 100 µM (inactive)
OVCAR-3
  GI50: > 100 µM (inactive)
OVCAR-4
  GI50: > 100 µM (inactive)
OVCAR-5
  GI50: > 100 µM (inactive)
OVCAR-8
  GI50: > 100 µM (inactive)
RPMI-8226
  GI50: > 100 µM (inactive)
RXF 393
  GI50: > 100 µM (inactive)
SF-268
  GI50: > 100 µM (inactive)
SF-295
  GI50: > 100 µM (inactive)
SF-539
  GI50: > 100 µM (inactive)
SK-MEL-28
  GI50: > 100 µM (inactive)
SK-MEL-2
  GI50: > 100 µM (inactive)
SK-MEL-5
  GI50: > 100 µM (inactive)
SN12C
  GI50: > 100 µM (inactive)
SNB-19
  GI50: > 100 µM (inactive)
SNB-75
  GI50: 17.5 µM (inactive)
SNB-78
  GI50: > 100 µM (inactive)
SW-620
  GI50: > 100 µM (inactive)
TK-10
  GI50: > 100 µM (inactive)
U-251
  GI50: > 100 µM (inactive)
UACC-257
  GI50: > 100 µM (inactive)
UACC-62
  GI50: > 100 µM (inactive)
UO-31
  GI50: > 100 µM (inactive)
XF498
  GI50: > 100 µM (inactive)

## Cc1cccc(C)c1NC(=O)CCC(=O)NC(N)=S
786-0
  GI50: > 100 µM (inactive)
A498
  GI50: > 100 µM (inactive)
A549
  GI50: > 100 µM (inactive)
ACHN
  GI50: > 100 µM (inactive)
CAKI-1
  GI50: > 100 µM (inactive)
CCRF-CEM
  GI50: > 100 µM (inactive)
COLO 205
  GI50: > 100 µM (inactive)
DLD-1
  GI50: > 100 µM (inactive)
EKVX
  GI50: > 100 µM (inactive)
HCC 2998
  GI50: > 100 µM (inactive)
HCT-116
  GI50: > 100 µM (inactive)
HCT-15
  GI50: > 100 µM
HL-60
  GI50: > 100 µM (inactive)
HOP-18
  GI50: > 100 µM (inactive)
HOP-62
  GI50: > 100 µM (inactive)
HOP-92
  GI50: > 100 µM (inactive)
HT-29
  GI50: > 100 µM (inactive)
IGROV-1
  GI50: > 100 µM (inactive)
K562
  GI50: > 100 µM (inactive)
KM-20L2
  GI50: > 100 µM (inactive)
KM12
  GI50: > 100 µM (inactive)
LOX IMVI
  GI50: > 100 µM (inactive)
LXFL 529
  GI50: > 100 µM (inactive)
M14
  GI50: > 100 µM (inactive)
M19-MEL
  GI50: > 100 µM (inactive)
MOLT-4
  GI50: > 100 µM (inactive)
Malme-3M
  GI50: > 100 µM (inactive)
NCI-H226
  GI50: > 100 µM (inactive)
NCI-H23
  GI50: > 100 µM (inactive)
NCI-H460
  GI50: > 100 µM (inactive)
NCI-H522
  GI50: > 100 µM (inactive)
OVCAR-3
  GI50: > 100 µM (inactive)
OVCAR-5
  GI50: > 100 µM (inactive)
OVCAR-8
  GI50: > 100 µM (inactive)
RPMI-8226
  GI50: > 100 µM (inactive)
RXF 393
  GI50: > 100 µM (inactive)
SF-295
  GI50: > 100 µM (inactive)
SF-539
  GI50: > 100 µM (inactive)
SK-MEL-5
  GI50: > 100 µM (inactive)
SK-OV-3
  GI50: > 100 µM (inactive)
SN12C
  GI50: > 100 µM (inactive)
SNB-19
  GI50: > 100 µM (inactive)
SNB-75
  GI50: > 100 µM (inactive)
SR
  GI50: > 100 µM (inactive)
SW-620
  GI50: > 100 µM (inactive)
TK-10
  GI50: > 100 µM (inactive)
U-251
  GI50: > 100 µM (inactive)
UACC-257
  GI50: > 100 µM (inactive)
UACC-62
  GI50: > 100 µM (inactive)
UO-31
  GI50: > 100 µM (inactive)

From ChEMBL document CHEMBL1201862, “PubChem BioAssay data set” (2004)
